These results are taken from ChEMBL document CHEMBL1125505, “Nucleosides and nucleotides. 112. 2-(1-Hexyn-1-yl)adenosine-5'-uronamides: a new entry of selective A2 adenosine receptor agonists with potent antihypertensive activity” (J Med Chem, 1992).

Some results are limits rather than exact numbers.

Experiment [1] relates to Rattus norvegicus. Description: Dose producing 10% decrease in heart rate of anesthetized spontaneously hypertensive rats (SHR's). Format: functional.
Experiment [2] concerns Rattus norvegicus. Description: Dose producing 30% decrease in blood pressure of anesthetized spontaneously hypertensive rats (SHR's). Format: functional.
The target in experiment [3] is Adenosine A2 receptor (Rattus norvegicus, UniProt P29276+P30543). The experiment is classed as protein assay.
Experiment [4] addresses T1, Adenosine receptor A1 (Rattus norvegicus, UniProt P25099).
T1 sequence (P25099 whole entry): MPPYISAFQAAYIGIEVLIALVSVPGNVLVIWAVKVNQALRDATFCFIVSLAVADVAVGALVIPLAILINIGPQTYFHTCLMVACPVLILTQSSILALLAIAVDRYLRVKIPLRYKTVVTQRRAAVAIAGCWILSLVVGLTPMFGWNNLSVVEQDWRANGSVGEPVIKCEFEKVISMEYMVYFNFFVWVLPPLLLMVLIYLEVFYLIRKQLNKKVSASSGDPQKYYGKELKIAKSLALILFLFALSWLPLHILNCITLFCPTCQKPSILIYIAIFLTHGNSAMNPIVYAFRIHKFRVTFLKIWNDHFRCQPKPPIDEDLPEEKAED
Description: Binding affinity against adenosine A1 receptor from rat brain membranes using [3H]cyclohexyladenosine as radioligand.

In the case of `CCCCC#Cc1nc(N)c2ncn([C@@H]3O[C@H](CCl)[C@@H](O)[C@H]3O)c2n1`, the ED10 in experiment [1] is over 3 µg/kg. Besides, in experiment [2], the ED30 was over 3 µg/kg. The values for the Ki in experiment [3] and in experiment [4] were 5.2 nM and 217 nM, respectively.
As for `CCCCC#Cc1nc(N)c2ncn(C3O[C@H](CNC=O)[C@@H](O)[C@H]3O)c2n1` (some centres undefined), the ED10 in experiment [1] is over 100 µg/kg. Also, in experiment [2], the ED30 was over 100 µg/kg. Also, the results for the Ki in experiment [3] and in experiment [4] were over 181 nM and over 472 nM, respectively.
`CCCCC#Cc1nc(N)c2ncn(C3O[C@H](C(=O)NCCC)[C@@H](O)[C@H]3O)c2n1` (some centres undefined) displayed an ED10 in experiment [1] of over 100 µg/kg. Also, the ED30 in experiment [2] was 2.88 µg/kg. For the same compound, the Ki (usually the equilibrium dissociation constant of an inhibitor or competing ligand from its target) in experiment [3] turned out to be 44 nM; in experiment [4], 1810 nM.
In experiment [1], `CCCCC#Cc1nc(N)c2ncn(C3O[C@H](CNS(C)(=O)=O)[C@@H](O)[C@H]3O)c2n1` (some centres undefined) showed an ED10 of over 100 µg/kg. Besides, the ED30 in experiment [2] was over 100 µg/kg. Moreover, the Ki is over 181 nM in experiment [3] and over 472 nM in experiment [4].
In experiment [1], `COc1cc(OC)cc(C(CNc2ncnc3c2ncn3[C@@H]2O[C@H](CO)[C@@H](O)[C@H]2O)c2ccccc2C)c1` (some centres undefined) had an ED10 of over 100 µg/kg. Besides, in experiment [2], the ED30 was 12.3 µg/kg. For the same compound, the Ki in experiment [3] was 4.6 nM; in experiment [4], 64 nM.
Compound `Nc1nc(Nc2ccccc2)nc2c1ncn2[C@@H]1O[C@H](CO)[C@@H](O)[C@H]1O` came in with an ED10 in experiment [1] of over 100 µg/kg. In experiment [2], this compound returned an ED30 of 6.1 µg/kg. In experiment [3], this compound displayed a Ki of 83 nM.
Compound `CCCCC#Cc1nc(N)c2ncn([C@@H]3O[C@H](C(N)=O)[C@@H](O)[C@H]3O)c2n1` yielded an ED10 in experiment [1] of over 100 µg/kg. Also, the ED30 in experiment [2] was 0.18 µg/kg. In addition, the inhibition constant Ki in experiment [3] turned out to be 19 nM; in experiment [4] it was 1270 nM.
The matching figures for `CCCCC#Cc1nc(N)c2ncn([C@@H]3O[C@H](C(=O)NC4CC4)[C@@H](O)[C@H]3O)c2n1`: 40.7 µg/kg, 0.17 µg/kg, 2.6 nM and 136 nM.
Compound `CCNC(=O)[C@H]1O[C@@H](n2cnc3c(N)ncnc32)[C@H](O)[C@@H]1O` [NECA] had an ED10 in experiment [1] of 0.35 µg/kg. Further, the ED30 in experiment [2] turned out to be 0.23 µg/kg.
The compound `CC(=O)O[C@]1(C(C)=O)CC[C@H]2[C@@H]3C=C(Cl)C4=CC(=O)[C@@H]5C[C@@H]5[C@]4(C)[C@H]3CC[C@@]21C` [CYPROTERONE ACETATE] showed an ED10 in experiment [1] of 0.17 µg/kg. In addition, the ED30 in experiment [2] is 0.53 µg/kg. In experiment [3], this compound displayed a Ki of 336 nM.
For `CCCCC#Cc1nc(N)c2ncn(C3O[C@H](C(=O)NC)[C@@H](O)[C@H]3O)c2n1` (some centres undefined), the ED10 in experiment [1] was over 100 µg/kg. The compound also displayed an ED30 in experiment [2] of 0.51 µg/kg. Moreover, the Ki in experiment [3] amounted to 11 nM; in experiment [4] it was 1780 nM.
For `CCCCCCC#Cc1nc(N)c2ncn([C@@H]3O[C@H](CO)[C@@H](O)[C@H]3O)c2n1` the same measures were over 100 µg/kg, 0.35 µg/kg, 6.1 nM and 117 nM.
Take `CCCCC#Cc1nc(N)c2ncn([C@@H]3O[C@H](CO)[C@@H](O)[C@H]3O)c2n1`: the ED10 in experiment [1] was determined as 70.4 µg/kg. This compound also returned an ED30 in experiment [2] of 0.11 µg/kg. This compound also yielded an inhibition constant (Ki) in experiment [4] of 103 nM.
In experiment [1], `CCNC(=O)[C@H]1O[C@@H](n2cnc3c(N)nc(NCCc4ccc(CCC(=O)O)cc4)nc32)[C@H](O)[C@@H]1O` [CGS-21680] gave an ED10 of over 100 µg/kg. The compound also yielded an ED30 in experiment [2] of 0.83 µg/kg.
For `CCCCC#Cc1nc(N)c2ncn([C@@H]3O[C@H](C(=O)NCC)[C@@H](O)[C@H]3O)c2n1`, in experiment [1], the ED10 is over 100 µg/kg. This compound also came in with an ED30 in experiment [2] of 0.3 µg/kg. The values for the Ki in experiment [3] and in experiment [4] were 4.8 nM and 276 nM, respectively.
For `CCCCC#Cc1nc(N)c2ncn([C@@H]3O[C@H](C(=O)NCCCC)[C@@H](O)[C@H]3O)c2n1` the same measures were over 100 µg/kg, 26.4 µg/kg, 169 nM and 1930 nM.
In the case of `CCCCC#Cc1nc(N)c2ncn(C3O[C@H](CNC(C)=O)[C@@H](O)[C@H]3O)c2n1` (some centres undefined), the ED10 in experiment [1] was over 100 µg/kg. This compound had an ED30 in experiment [2] of over 100 µg/kg. Further, the Ki in experiment [3] was over 181 nM; in experiment [4] it was over 472 nM.
As to `CCCCC#Cc1nc(N)c2ncn(C3O[C@H](CNC(=O)NC)[C@@H](O)[C@H]3O)c2n1` (some centres undefined), in experiment [1], the ED10 was over 100 µg/kg. The compound also gave an ED30 in experiment [2] of over 100 µg/kg. Further, the Ki was over 181 nM in experiment [3] and over 472 nM in experiment [4].
As for `CCCCC#Cc1nc(N)c2ncn(C3O[C@H](C/N=C(\S)NC)[C@@H](O)[C@H]3O)c2n1` (some centres undefined), in experiment [1], the ED10 is over 100 µg/kg. The same compound showed an ED30 in experiment [2] of 54.5 µg/kg. The results for the Ki in experiment [3] and in experiment [4] were over 181 nM and over 472 nM, respectively.
